Laboratory results published in ChEMBL document CHEMBL3301464, “MMV Malaria Box anti-babesial screening”.

What was measured:
[1] = (§1) MMV: Anti-babesial activity assay. Parasite pRBCs at 1% parasitemia were cultivated in 100 ul with 96-well plates at 2.5% and 5% hematocrits. The parasites were cultivated in triplicate for 4 days without replacement of the medium for each concentration of the compound.; format: functional, Babesia bigemina
[2] = as §1; format: functional, Babesia caballi
[3] = as §1; format: functional, Babesia bovis
[4] = as §1; format: functional, Babesia equi

Compound: O=C(Nc1ccc(Cl)c(Cl)c1)Nc1ccc(Cl)c(Cl)c1
- IC50 [1]: 2.95 µM
- IC50 [2]: 4.91 µM
- IC50 [3]: 0.59 µM
- IC50 [4]: 0.21 µM

Compound: N=c1n(CCN2CCCCC2)c2ccccc2n1CC(=O)c1ccc(Cl)c(Cl)c1
- IC50 [1]: 0.066 µM
- IC50 [2]: 3.73 µM
- IC50 [3]: 0.077 µM
- IC50 [4]: 15.9 µM

Compound: Nc1nc(Nc2cccc(F)c2)nc2ccccc12
- IC50 [1]: 7.65 µM
- IC50 [2]: 6.08 µM
- IC50 [3]: 0.73 µM
- IC50 [4]: 0.79 µM

Compound: Cc1sc(NC(=O)c2ccco2)c(C(c2cccnc2)N2CCC(Cc3ccccc3)CC2)c1C (stereo not given)
- IC50 [1]: 0.073 µM
- IC50 [2]: 0.45 µM
- IC50 [3]: 0.086 µM
- IC50 [4]: 17.5 µM

Compound: COC(=O)c1ccc(Cl)c2c1C1C=CCC1C(c1cccc3ccccc13)N2 (stereo not given)
- IC50 [1]: 10 µM
- IC50 [2]: 12 µM
- IC50 [3]: 15.7 µM
- IC50 [4]: 17.8 µM

Compound: O=C(CCc1ccccc1)c1ccccc1OCC(O)CN1CCCCC1 (stereo not given)
- IC50 [1]: 5.69 µM
- IC50 [2]: 7.26 µM
- IC50 [3]: 4.52 µM
- IC50 [4]: 10.7 µM

Compound: COc1cc(C(=O)Nc2ccc(-c3nc4ccccc4[nH]3)cc2)cc(OC)c1OC
- IC50 [1]: 1 µM
- IC50 [2]: 11 µM
- IC50 [3]: 13.3 µM
- IC50 [4]: 15.9 µM

Compound: Cc1ccc(C(=O)c2oc3ccc4c(C)cc(=O)oc4c3c2C)cc1
- IC50 [1]: 0.065 µM
- IC50 [2]: 9.18 µM
- IC50 [3]: 0.07 µM
- IC50 [4]: 0.054 µM

Compound: O=C(CCl)NCCOc1ccc(Cl)cc1Cl
- IC50 [1]: 13.1 µM
- IC50 [2]: 12 µM
- IC50 [3]: 16.5 µM
- IC50 [4]: 16.5 µM

Compound: O=C(NC1CCN(Cc2ccccc2)CC1)c1cc(C(=O)NC2CCN(Cc3ccccc3)CC2)cc(C(=O)NC2CCN(Cc3ccccc3)CC2)c1
- IC50 [1]: 0.077 µM
- IC50 [2]: 5.3 µM
- IC50 [3]: 0.06 µM
- IC50 [4]: 15.2 µM

Compound: CC(=O)c1sc(NC(=O)Nc2ccc(C)cc2C)nc1C
- IC50 [1]: 10 µM
- IC50 [2]: 5.3 µM
- IC50 [3]: 11.1 µM
- IC50 [4]: 7.26 µM

Compound: CCOc1ccc2nc(C)cc(Nc3ccc(N(C)C)cc3)c2c1
- IC50 [1]: 0.065 µM
- IC50 [2]: 6.08 µM
- IC50 [3]: 0.056 µM
- IC50 [4]: 15.5 µM

Compound: O=C(Nc1ccc(-c2nc3ccccc3[nH]2)cc1)c1ccc(Cl)c(Cl)c1
- IC50 [1]: 4.13 µM
- IC50 [2]: 3.86 µM
- IC50 [3]: 18.5 µM
- IC50 [4]: 6.24 µM

Compound: Cc1cc(N(C)C)nc(Nc2ccc(NC(=O)Nc3ccccc3)cc2)n1
- IC50 [1]: 0.06 µM
- IC50 [2]: 14.6 µM
- IC50 [3]: 0.078 µM
- IC50 [4]: 12.1 µM

Compound: COc1ccccc1C(=O)ON=C(N)Cc1cccc2ccccc12
- IC50 [1]: 19.8 µM
- IC50 [2]: 6.86 µM
- IC50 [3]: 22.4 µM
- IC50 [4]: 7.65 µM

Compound: COc1ccc(C2C(C(=O)Nc3cccc(OC)c3)c3ccccc3C(=O)N2C2CCCCC2)cc1 (stereo not given)
- IC50 [1]: 0.22 µM
- IC50 [2]: 1 µM
- IC50 [3]: 10 µM
- IC50 [4]: 12.5 µM

Compound: CN1C=C(c2ccc3ccccc3n2)C(c2c[nH]c3ccccc23)c2ccccc21 (stereo not given)
- IC50 [1]: 4.52 µM
- IC50 [2]: 0.304 µM
- IC50 [3]: 5.9 µM
- IC50 [4]: 5.12 µM

Compound: Oc1c(C(Nc2ccccn2)c2cccc(Oc3ccccc3)c2)ccc2cccnc12 (stereo not given)
- IC50 [1]: 3.34 µM
- IC50 [2]: 10 µM
- IC50 [3]: 6.72 µM
- IC50 [4]: 12.6 µM

Compound: CCn1c2c(c(=N)c3c1CCC3)CCCC2
- IC50 [1]: 0.082 µM
- IC50 [2]: 0.44 µM
- IC50 [3]: 0.052 µM
- IC50 [4]: 15 µM

Compound: Cc1ccc2c(C)nc(Nc3nc(C)cc(-c4ccccc4)n3)nc2c1
- IC50 [1]: 7.95 µM
- IC50 [2]: 4.13 µM
- IC50 [3]: 16.8 µM
- IC50 [4]: 14.4 µM

Compound: CCCCCCC(O)(c1ccc(F)cc1)C(CN1CCOCC1)c1ccccc1 (stereo not given)
- IC50 [1]: 9.87 µM
- IC50 [2]: 0.29 µM
- IC50 [3]: 2.63 µM
- IC50 [4]: 10 µM

Compound: Cc1ccc(C)c(-c2csc(Nc3ccc(C)c(C)c3)n2)c1
- IC50 [1]: 8.05 µM
- IC50 [2]: 0.71 µM
- IC50 [3]: 0.06 µM
- IC50 [4]: 0.14 µM

Compound: CCOc1c(Br)cc(C2C(C(=O)OC)=CN(C)C=C2C(=O)OC)cc1OC
- IC50 [1]: 0.25 µM
- IC50 [2]: 11.9 µM
- IC50 [3]: 0.072 µM
- IC50 [4]: 9.18 µM

Compound: CN(C)c1ccc(N=Cc2ccc(N3CCOCC3)cc2)cc1
- IC50 [1]: 0.068 µM
- IC50 [2]: 0.043 µM
- IC50 [3]: 0.068 µM
- IC50 [4]: 0.63 µM

Compound: CCOC(=O)c1cnc2ccc(OC)cc2c1NCc1ccccc1
- IC50 [1]: 1 µM
- IC50 [2]: 5.9 µM
- IC50 [3]: 0.72 µM
- IC50 [4]: 14.1 µM
